Assay results reported in PubChem BioAssay AID248 (DTP/NCI, 2004).
Where “and” joins values, the source holds several entries; their conditions need not be identical. Equal values may be shown once. Toxic doses and inconclusive results are not listed. Cut-off read from the data, not from the text of the source: active = T/C of 150% or more; inactive = T/C below 125%. Numbered stars: 1 amine (or outer) side, 2 acyl side, 3 side chain; on linkers, the order of the positions; unused ones are H or OH. Bridge positions count the residues as written; N and C are the ends. Square brackets hold non-standard residues; d marks the D form. Peptide text beside a SMILES is read from it. * marks the point of attachment. X3 = CC(C)C(C)C(C(=O)[*:2])N(C)[*:1]; Picolinoyl(3-OH) = O=C(c1ncccc1O)*; NMePhg = CN[CH](C(=O)O)c1ccccc1; Hyp = O=C(O)[CH]1C[CH](O)CN1; Sar = CNCC(=O)O

Tested on: L1210 leukemia ip in BDF1 mice, survival T/C
Assay: NCI In Vivo Anticancer Drug Screen. Data for tumor model L1210 Leukemia (intraperitoneal) in B6D2F1 (BDF1) mice
Details: endpoint: mean survival time, higher = longer survival
Method in brief: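 Read-out is survival time, reported as the treated-group measurement over the vehicle-control measurement.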

[1] = dose: 25.0 mg/kg/injection, schedule: Q01DX009 (ip), vehicle: saline
[2] = dose: 50.0 mg/kg/injection, schedule: Q01DX009 (ip), vehicle: saline
[3] = dose: 100.0 mg/kg/injection, schedule: Q01DX001 (ip), vehicle: saline
[4] = dose: 100.0 mg/kg/injection, schedule: Q01DX009 (ip), vehicle: saline
[5] = dose: 100.0 mg/kg/injection, schedule: Q04DX003 (ip), vehicle: saline with Tween-80
[6] = dose: 100.0 mg/kg/injection, schedule: Q01DX009 (ip), vehicle: Klucel (hydroxypropylcellulose) (HPC)
[7] = dose: 200.0 mg/kg/injection, schedule: Q01DX009 (ip), vehicle: Klucel (hydroxypropylcellulose) (HPC)
[8] = dose: 100.0 mg/kg/injection, schedule: Q04DX003 (ip), vehicle: saline
[9] = dose: 400.0 mg/kg/injection, schedule: Q01DX009 (ip), vehicle: Klucel (hydroxypropylcellulose) (HPC)
[10] = dose: 100.0 mg/kg/injection, schedule: Q01DX001 (ip), vehicle: carboxymethylcellulose (CMC)
[11] = dose: 50.0 mg/kg/injection, schedule: Q04DX003 (ip), vehicle: Klucel (hydroxypropylcellulose) (HPC)
[12] = dose: 100.0 mg/kg/injection, schedule: Q04DX003 (ip), vehicle: Klucel (hydroxypropylcellulose) (HPC)
[13] = dose: 200.0 mg/kg/injection, schedule: Q04DX003 (ip), vehicle: Klucel (hydroxypropylcellulose) (HPC)
[14] = dose: 400.0 mg/kg/injection, schedule: Q04DX003 (ip), vehicle: Klucel (hydroxypropylcellulose) (HPC)

Measured: T/C

CC1=NC(C(=O)Cl)NN1c1ccccc1 (stereo not given)
inactive: [1] 101 % of control | dose: 25.0 mg/kg/injection, schedule: Q04DX003 (ip), vehicle: saline with Tween-80 96 % of control | [2] 97 % of control | dose: 50.0 mg/kg/injection, schedule: Q04DX003 (ip), vehicle: saline with Tween-80 101 % of control | [3] 93 % of control | [4] 95 % of control | [5] 98 % of control

COC(OC)C1=CC(=O)NC(NC(=O)C(Cl)Cl)N1 (stereo not given)
inactive: dose: 50.0 mg/kg/injection, schedule: Q01DX001 (ip), vehicle: saline 92 % of control | [3] 98 % of control | dose: 200.0 mg/kg/injection, schedule: Q01DX001 (ip), vehicle: saline 95 % of control

CCOC(=O)CNCCN(CC)CC
inactive: dose: 100.0 mg/kg/injection, schedule: Q01DX001 (ip), vehicle: saline with Tween-80 101 % of control | dose: 200.0 mg/kg/injection, schedule: Q01DX001 (ip), vehicle: saline with Tween-80 111 % of control | dose: 400.0 mg/kg/injection, schedule: Q01DX001 (ip), vehicle: saline with Tween-80 94 % of control

N=C(N)SCC(O)c1ccccc1 (stereo not given)
inactive: [6] 104 % of control | [7] 95 % of control

CCCC1(CCC)CN(CO)C1=O
inactive: [1] 102 % of control | dose: 25.0 mg/kg/injection, schedule: Q04DX003 (ip), vehicle: saline 93 % of control | [2] 102 % of control | dose: 50.0 mg/kg/injection, schedule: Q04DX003 (ip), vehicle: saline 98 % of control | [4] 100 % of control | [8] 104 % of control | dose: 200.0 mg/kg/injection, schedule: Q01DX009 (ip), vehicle: saline 97 % of control | dose: 200.0 mg/kg/injection, schedule: Q04DX003 (ip), vehicle: saline 104 % of control | dose: 400.0 mg/kg/injection, schedule: Q04DX003 (ip), vehicle: saline 88 % of control

O=C(N/N=C/c1ccccc1O)c1ccccc1NC(=O)C1CC1
inactive: [6] 104 % of control | [7] 95 % of control | [9] 101 % of control

O=C1C=CC(=O)c2c1ccc1c2[nH]c2ccccc21
inactive: dose: 100.0 mg/kg/injection, schedule: Q04DX002 (ip), vehicle: saline with Tween-80 113 % of control | dose: 200.0 mg/kg/injection, schedule: Q04DX002 (ip), vehicle: saline with Tween-80 90 % of control

ClCCCNCc1ccc(-c2c3ccccc3cc3c2ccc2ccccc23)cc1
inactive: [10] 95 % of control | dose: 200.0 mg/kg/injection, schedule: Q01DX001 (ip), vehicle: carboxymethylcellulose (CMC) 101 % of control

CCCC[P+](CO)(CCCC)CCCC
inactive: dose: 30.0 mg/kg/injection, schedule: Q01DX001 (ip), vehicle: saline 102 % of control

CC(C)CC1NC(=O)C(NC(=O)c2ncccc2O)C(C)OC(=O)C(c2ccccc2)N(C)C(=O)C(C)NC(=O)C(C(C)C(C)C)N(C)C(=O)CN(C)C(=O)C2CC(O)CN2C1=O (stereo not given) ({Picolinoyl(3-OH)}-TL[Hyp][Sar][X3]A[NMePhg]; ester 1-C; configuration not given here)
inactive: dose: 5.3 mg/kg/injection, schedule: Q01DX Z (ip), vehicle: saline 100 % of control | dose: 8.0 mg/kg/injection, schedule: Q01DX Z (ip), vehicle: saline 100 % of control | dose: 12.0 mg/kg/injection, schedule: Q01DX Z (ip), vehicle: saline 103 % of control | dose: 18.0 mg/kg/injection, schedule: Q01DX Z (ip), vehicle: saline 103 % of control and 109 % of control | dose: 36.0 mg/kg/injection, schedule: Q01DX Z (ip), vehicle: saline 97 % of control | dose: 72.0 mg/kg/injection, schedule: Q01DX Z (ip), vehicle: saline 103 % of control | dose: 144.0 mg/kg/injection, schedule: Q01DX Z (ip), vehicle: saline 106 % of control

CCN(CC)CCOc1cccc(O)c1
inactive: dose: 25.0 mg/kg/injection, schedule: Q04DX003 (ip), vehicle: Klucel (hydroxypropylcellulose) (HPC) 94 % of control | [11] 97 % of control | dose: 100.0 mg/kg/injection, schedule: Q01DX001 (ip), vehicle: Klucel (hydroxypropylcellulose) (HPC) 93 % of control | [12] 100 % of control and 107 % of control | dose: 200.0 mg/kg/injection, schedule: Q01DX001 (ip), vehicle: Klucel (hydroxypropylcellulose) (HPC) 91 % of control

CC(C)C1=CC(=O)OC1C(O)C(C)C1CCC2C3CC=C4CC(O)CCC4(C)C3CCC12C (stereo not given)
inactive: [12] 102 % of control | [13] 96 % of control | [14] 94 % of control

CCOC(=O)c1c[nH]c2c(Cl)cc(Cl)cc2c1=O
inactive: dose: 100.0 mg/kg/injection, schedule: Q01DX001 (ip), vehicle: other 104 % of control | dose: 200.0 mg/kg/injection, schedule: Q01DX001 (ip), vehicle: other 95 % of control | dose: 400.0 mg/kg/injection, schedule: Q01DX001 (ip), vehicle: other 101 % of control

CCCCN(CCCC)CC(O)c1ccnc2cc3c(cc12)OCO3 (stereo not given)
inactive: dose: 25.0 mg/kg/injection, schedule: Q01DX009 (ip), vehicle: other 102 % of control | dose: 50.0 mg/kg/injection, schedule: Q01DX009 (ip), vehicle: other 110 % of control | [3] 97 % of control | dose: 100.0 mg/kg/injection, schedule: Q01DX009 (ip), vehicle: other 111 % of control

N#Cc1ccc(OCCCCOc2ccc([N+](=O)[O-])cc2Cl)cc1
inactive: [6] 91 % of control | [7] 95 % of control | [9] 101 % of control

NC(=O)C(c1ccccc1)c1ccccc1
inactive: [5] 93 % of control | dose: 200.0 mg/kg/injection, schedule: Q04DX003 (ip), vehicle: saline with Tween-80 100 % of control | dose: 400.0 mg/kg/injection, schedule: Q04DX003 (ip), vehicle: saline with Tween-80 94 % of control

ClCC(Cl)CN1CCCCC1 (stereo not given)
inactive: [5] 112 % of control

Cc1cn(C2CC(O)C(CF)O2)c(=O)[nH]c1=O (stereo not given)
inactive: dose: 100.0 mg/kg/injection, schedule: Q01DX005 (ip), vehicle: saline 117 % of control | dose: 200.0 mg/kg/injection, schedule: Q01DX005 (ip), vehicle: saline 122 % of control

O=C(N/N=C\c1ccc(Cl)c(Cl)c1)N/N=C/c1ccc(Cl)c(Cl)c1
inactive: [11] 92 % of control | [12] 87 % of control | [13] 92 % of control

COc1ccc(C(=O)CC(=O)CC(=O)c2ccccc2)cc1
inactive: [6] 117 % of control | [12] 107 % of control | [7] 102 % of control | [13] 96 % of control | [9] 96 % of control | [14] 105 % of control

O=C1N(Cl)C2C(N1Cl)N(Cl)C(=O)N2Cl (stereo not given)
inactive: dose: 50.0 mg/kg/injection, schedule: Q01DX001 (ip), vehicle: carboxymethylcellulose (CMC) 97 % of control | [10] 97 % of control

O=C(Nc1ccc(C(=O)Nc2nccs2)cc1)c1ccc(C(=O)Nc2ccc(C(=O)Nc3nccs3)cc2)c(Cl)c1
inactive: dose: 4.4 mg/kg/injection, schedule: Q01DX Z (ip), vehicle: saline 106 % of control | dose: 6.6 mg/kg/injection, schedule: Q01DX Z (ip), vehicle: saline 97 % of control | dose: 10.0 mg/kg/injection, schedule: Q01DX Z (ip), vehicle: saline 97 % of control | dose: 15.0 mg/kg/injection, schedule: Q01DX Z (ip), vehicle: saline 93 % of control and 97 % of control and 106 % of control | dose: 22.5 mg/kg/injection, schedule: Q01DX Z (ip), vehicle: saline 104 % of control | dose: 30.0 mg/kg/injection, schedule: Q01DX Z (ip), vehicle: saline 100 % of control | dose: 33.75 mg/kg/injection, schedule: Q01DX Z (ip), vehicle: saline 111 % of control | dose: 50.6 mg/kg/injection, schedule: Q01DX Z (ip), vehicle: saline 93 % of control | dose: 60.0 mg/kg/injection, schedule: Q01DX Z (ip), vehicle: saline 97 % of control | dose: 120.0 mg/kg/injection, schedule: Q01DX Z (ip), vehicle: saline 98 % of control and 100 % of control | dose: 180.0 mg/kg/injection, schedule: Q01DX Z (ip), vehicle: saline 93 % of control | dose: 270.0 mg/kg/injection, schedule: Q01DX Z (ip), vehicle: saline 92 % of control | dose: 400.0 mg/kg/injection, schedule: Q01DX Z (ip), vehicle: saline 93 % of control

CCCCCCCCCCCCCCCC[N+]1(C)CCN(SN2CC[N+](C)(CCCCCCCCCCCCCCCC)CC2)CC1
inactive: [1] 98 % of control | [2] 105 % of control | [8] 86 % of control
